Assays:
[1] = tested on: PBEF; test: Knockdown of PBEF by RNA interference: PBEF mRNA (real-time RT-PCR) and protein (Western blot); type: cell-based, human; conditions: HITC6 SMCs, retroviral hairpin siRNA
Description: (§1) Western Blot Analyses were employed to assay marker expression. Expression of PBEF and SMC differentiation markers was assessed by Western blot analysis with chemiluminescence detection, as described (29). Equal amounts of protein were resolved on 12% (for PBEF and α-tubulin), 9% (for smoothelin A and smoothelin B) and 6% (for caldesmon and vinculin-metavinculin) SDS-polyacrylamide gels and transferred PVDF membranes (Immobilon, Millipore). PBEF was detected using a polyclonal rabbit antibody against human PBEF (1857, 1:5000, kindly provided by Amgen). Monoclonal antibodies were used to detect heavy (h)-caldesmon (clone hHCD, 1:1000, Sigma), smoothelin isoforms A and B (clone MAB3242, 1:500, Chemicon), vinculin-metavinculin (clone VIN-11-5, 1:2000, Sigma), and α-tubulin (clone B-5-1-2; 1:16000, Sigma).
(§2) Knockdown of PBEF by RNA Interference was evaluated with a viral vector. PBEF knockdown was accomplished by infecting human SMC's with retrovirus containing sequences encoding hairpin siRNA fragments. Complementary oligodeoxynucleotides were synthesized, annealed, and inserted between the BamH1 and EcoR1 sites of the retroviral expression vector pSIREN-RetroQ. Three different targeting sequences were used, each consisting of 19 nucleotides starting at nucleotides 147, 384, and […] of the PBEF coding sequence (siRNA147 5′-GGAAGGTGAAATATGAGGA-3′; siRNA384 5′-ATGTTCTCTTCACGGTGGA-3′; siRNA1278 5′-AGGGCCGATTATCTTTACA-3′). Each sequence was separated by a 9-nucleotide noncomplementary spacer from the reverse complement of the same 19-nucleotide sequence. Blast search confirmed that only the PBEF gene was targeted. Control inserts contained the gene-specific 19-nucleotide sequence and hairpin loop sequence but not the antisense component. Infection of SMCs was performed as described above and cells were selected using 3 μg/ml puromycin for 48 hours.
Real-time RT-PCR was used to analyze nucleic acid evidence. RNA was harvested using RNeasy mini-column and reagents (Qiagen) and subjected to DNaseI treatment. Probe (5′-CAGTTGCTGATCCCA-3′) and flanking primers (5′-primer 5′-[…]-3′; 3′-primer 5′-[…]-3′) for Taqman real-time RT-PCR for PBEF were designed using Primer Express software (Applied Biosystems). Reactions were performed using an ABI-Prism 7900 Sequence Detection System (Applied Biosystems). Optimum signal was obtained with concentrations of 200 nM, 300 nM and 50 nM for the probe, 5′ primer, and 3′ primer, respectively. Standard curves were generated using RNA derived from human aortic SMCs, enabling correlation of the determined threshold cycle to transcript abundance. GAPDH transcript abundance was used as an endogenous RNA control (Assays on Demand Hs9999905, Applied Biosystems) to which PBEF transcript abundance was normalized.

[2] = tested on: HITC6 SMC's; test: Survival, morphology and h-caldesmon expression of PBEF-knockdown SMCs; type: cell-based, human; conditions: for SMC morphology / SMC survival: retroviral hairpin siRNA
Description: as §1, §2
Microscopy and Image Analysis were used to measure cell robustness and function. Cell images were collected using a Zeiss Axiovert S100 microscope (Carl Zeiss Microimaging Inc.) equipped with Hoffman Modulation Contrast Plan objectives and TCT condenser (Modulation Optics Inc.), cooled QICAM 12-bit Mono Fast 1394 camera (QImaging Inc.) and Northern Eclipse image analysis software (Empix Imaging Inc.). Histology images were acquired with an Olympus BX50 microscope with a BX-FLA illuminator, UPlanF1 objective lenses (Olympus Optical Co. Ltd.), cooled Retiga EXi Mono Fast 1394 camera (QImaging Inc.) and Northern Eclipse image analysis software. Linear image processing was done using Photoshop CS (Adobe Systems Inc.).

Substance	PBEF mRNA (real-time RT-PCR) vs non-silencing RNA control [1]	PBEF protein [1]	SMC morphology [2]	SMC survival [2]	h-caldesmon expression (Western blot) [2]
siRNA147: retrovirally expressed hairpin siRNA to PBEF, 19 nt from nucleotide 147: 5'-GGAAGGTGAAATATGAGGA-3' (hairpin with spacer and reverse complement)	significant decrease	significant suppression	short, truncated morphology	survived poorly	
siRNA384: retrovirally expressed hairpin siRNA to PBEF, 19 nt from nucleotide 384: 5'-ATGTTCTCTTCACGGTGGA-3' (hairpin with spacer and reverse complement)	did not manifest a reduction	did not manifest a reduction	maintained an elongated morphology		
siRNA1248: retrovirally expressed hairpin siRNA to PBEF, 19 nt from nucleotide 1248: 5'-AGGGCCGATTATCTTTACA-3' (hairpin with spacer and reverse complement)	significant decrease	significant suppression	short, truncated morphology	survived poorly	reduced expression
